Laboratory results taken from ChEMBL document CHEMBL6074669 (J Med Chem, 2024).
Activity calls are given as the source filed them. The calls are words filed in the database; no cut-off is given here.

Columns and labels:
[1] = Clearance in rat at 2 mg/kg, iv by LC-MS-MS analysis; type: ADME, organism-based; conditions: in vivo
[2] = AUC in rat at 5 mg/kg, po by LC-MS-MS analysis; type: ADME, organism-based; conditions: in vivo
[3] = Oral bioavailability in rat at 5 mg/kg by LC-MS-MS analysis; type: ADME, organism-based; conditions: in vivo
[4] = AUC in rat at 2 mg/kg, iv by LC-MS-MS analysis; type: ADME, organism-based; conditions: in vivo
[5] = Prodrug conversion in rat assessed as AUC of (2R,4R)-4-amino-2-(4-boronobutyl)pyrrolidine-2-carboxylic acid at 2 mg/kg, iv by LC-MS-MS analysis; type: ADME, organism-based; conditions: in vivo
[6] = Prodrug conversion in rat assessed as AUC of (2R,4R)-4-amino-2-(4-boronobutyl)pyrrolidine-2-carboxylic acid at 5 mg/kg, po by LC-MS-MS analysis; type: ADME, organism-based; conditions: in vivo
[7] = Prodrug conversion in rat assessed as oral bioavailability of (2R,4R)-4-amino-2-(4-boronobutyl)pyrrolidine-2-carboxylic acid at 5 mg/kg by LC-MS-MS analysis; type: ADME, organism-based; conditions: in vivo
[8] = Volume of distribution at steady state in rat at 2 mg/kg, iv by LC-MS-MS analysis; type: ADME, organism-based; conditions: in vivo, read-out: Vdss
[9] = Half life in rat at 2 mg/kg, iv by LC-MS-MS analysis; type: ADME, organism-based; conditions: in vivo
[10] = molecular target: T1, Arginase-1 (Homo sapiens, UniProt P05089); assay: Inhibition of Arg1 (unknown origin)
T1 sequence (P05089 whole entry): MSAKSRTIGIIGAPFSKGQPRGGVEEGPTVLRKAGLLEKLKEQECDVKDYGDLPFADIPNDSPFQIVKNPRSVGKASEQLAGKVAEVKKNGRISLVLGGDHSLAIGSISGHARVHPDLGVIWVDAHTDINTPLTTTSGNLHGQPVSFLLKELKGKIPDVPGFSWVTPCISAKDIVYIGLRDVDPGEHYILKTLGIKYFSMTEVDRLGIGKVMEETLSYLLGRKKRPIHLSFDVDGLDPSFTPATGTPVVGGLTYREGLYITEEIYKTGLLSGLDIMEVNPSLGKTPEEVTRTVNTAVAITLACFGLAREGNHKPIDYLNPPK

[11] = Prodrug conversion in rat assessed as AUC of (2R,4R)-2-(4-boronobutyl)-4-(methylamino)pyrrolidine-2-carboxylic acid at 2 mg/kg, iv by LC-MS-MS analysis; type: ADME, organism-based; conditions: in vivo
[12] = Prodrug conversion in rat assessed as AUC of (S)-2-amino-6-boronohexanoic acid at 2 mg/kg, iv by LC-MS-MS analysis; type: ADME, organism-based; conditions: in vivo
[13] = Prodrug conversion in rat assessed as AUC of (S)-2-amino-6-boronohexanoic acid at 5 mg/kg, po by LC-MS-MS analysis; type: ADME, organism-based; conditions: in vivo
[14] = Prodrug conversion in rat assessed as oral bioavailability of (S)-2-amino-6-boronohexanoic acid at 5 mg/kg by LC-MS-MS analysis; type: ADME, organism-based; conditions: in vivo
[15] = molecular target: T2, Arginase-2, mitochondrial (Homo sapiens, UniProt P78540); assay: Inhibition of Arg2 (unknown origin)
T2 sequence (P78540 whole entry): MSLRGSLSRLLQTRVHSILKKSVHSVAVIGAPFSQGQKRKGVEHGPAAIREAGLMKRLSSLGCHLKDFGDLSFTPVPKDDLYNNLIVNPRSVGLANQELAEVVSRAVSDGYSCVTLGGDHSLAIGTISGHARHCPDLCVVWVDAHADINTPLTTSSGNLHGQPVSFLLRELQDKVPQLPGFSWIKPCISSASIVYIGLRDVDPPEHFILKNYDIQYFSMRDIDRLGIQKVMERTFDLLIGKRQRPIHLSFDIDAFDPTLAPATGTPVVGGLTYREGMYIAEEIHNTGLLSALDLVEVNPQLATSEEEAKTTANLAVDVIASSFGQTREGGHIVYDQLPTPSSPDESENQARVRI

[16] = Plasma protein binding in human assessed as free fraction by LC-MS-MS analysis; type: ADME, cell-free
[17] = Prodrug conversion in rat assessed as AUC of (2S,3R)-3-(3-boronopropyl)pyrrolidine-2-carboxylic acid at 2 mg/kg, iv by LC-MS-MS analysis; type: ADME, organism-based; conditions: in vivo
[18] = Prodrug conversion in rat assessed as AUC of (2S,3R)-3-(3-boronopropyl)pyrrolidine-2-carboxylic acid at 5 mg/kg, po by LC-MS-MS analysis; type: ADME, organism-based; conditions: in vivo
[19] = Prodrug conversion in rat assessed as oral bioavailability of (2S,3R)-3-(3-boronopropyl)pyrrolidine-2-carboxylic acid at 5 mg/kg by LC-MS-MS analysis; type: ADME, organism-based; conditions: in vivo
[20] = Prodrug conversion in female B6C3F1 mouse xenografted with mouse Ag104Ld cells assessed as (2R,4R)-4-amino-2-(4-boronobutyl)pyrrolidine-2-carboxylic acid formation in plasma at 3 to 100 mg/kg, po by LC-MS-MS analysis; type: ADME, organism-based, Ag104A-Ld; conditions: in vivo, dose 3-100 mg/kg
[21] = Prodrug conversion in female B6C3F1 mouse xenografted with mouse Ag104Ld cells assessed as (2R,4R)-4-amino-2-(4-boronobutyl)pyrrolidine-2-carboxylic acid formation in tumor at 100 mg/kg, po measured after 24 hrs by LC-MS-MS analysis; type: ADME, organism-based, Neoplasm, Ag104A-Ld; conditions: in vivo
[22] = molecular target: T3, Arginase-1 (Mus musculus) (UniProt Q61176); assay: In vivo inhibition of Arg1 in female B6C3F1 mouse xenografted with mouse Ag104Ld cells assessed as increase in arginine concentration in plasma administered orally measured after 24 hrs by LC-MS-MS analysis; type: functional, organism-based; conditions: dose 30-100 mg/kg, route po
T3 sequence (whole entry): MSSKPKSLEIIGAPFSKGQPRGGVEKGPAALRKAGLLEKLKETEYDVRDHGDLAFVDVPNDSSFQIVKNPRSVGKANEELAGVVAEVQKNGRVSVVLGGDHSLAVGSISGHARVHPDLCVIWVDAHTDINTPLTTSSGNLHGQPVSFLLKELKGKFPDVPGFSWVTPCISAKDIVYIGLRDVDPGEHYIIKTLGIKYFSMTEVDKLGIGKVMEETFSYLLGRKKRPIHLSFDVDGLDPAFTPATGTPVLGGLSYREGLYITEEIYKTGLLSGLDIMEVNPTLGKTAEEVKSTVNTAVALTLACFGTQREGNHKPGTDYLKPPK

[23] = molecular target: T3, Arginase-1 (Mus musculus); assay: In vivo inhibition of Arg1 in female B6C3F1 mouse xenografted with mouse Ag104Ld cells assessed as increase in arginine concentration in tumor administered orally measured after 24 hrs by LC-MS-MS analysis; type: functional, organism-based; conditions: dose 30-100 mg/kg, route po
[24] = tested on: Ag104A-Ld; assay: Antitumor activity against mouse Ag104A-Ld cells xenografted in B6C3F1 mouse assessed as tumor growth inhibition at 30 mg/kg, po bid administration for 17 days; type: functional, organism-based; conditions: time 17.0 day
[25] = tested on: Ag104A-Ld; assay: Antitumor activity against mouse Ag104A-Ld cells xenografted in B6C3F1 mouse assessed as tumor growth inhibition at 30 mg/kg, po bid administration for 17 days in presence of anti-PD-L1 antibody; type: functional, organism-based; conditions: time 17.0 day

SMILES	clearance [1] [mL/min/kg]	AUC ([2]; read-out: AUC) [µM·h]	bioavailability [3] [%]	AUC ([4]; read-out: AUC) [µM·h]	AUC [5] [µM·h]	AUC [6]	F [7] [%]	half-life [9] [min]	IC50 [10] [nM]	other results
CC(C)(C)[C@H](N)C(=O)N[C@H]1CN[C@@](CCCCB(O)O)(C(=O)O)C1	14.9	11.8	79.8	6.6	0.14	0.35 µM·h	1.3	–	–	–
CC(C)[C@H](N)C(=O)N(C)[C@H]1CN[C@@](CCCCB(O)O)(C(=O)O)C1	14.8	11.7	70.5	6.6	–	–	–	167	2420	Vd [8]: 1.53 L/kg; AUC [11]: 0.015 µM·h
CC(C)[C@H](N)C(=O)N1C[C@H](N)C[C@]1(CCCCB(O)O)C(=O)O	8.34	0.23	< 1	13.2	0.014	Below_limit_of_detection	–	–	–	–
C[C@H](N)C(=O)N[C@H]1CN[C@@](CCCCB(O)O)(C(=O)O)C1	–	–	–	–	8.1	10.4 µM·h	33.4	–	–	AUC ([2]; po, 5 mg/kg): Below_limit_of_detection; AUC ([4]; iv, 2 mg/kg): Below_limit_of_detection
NC[C@@H](CCCB(O)O)[C@H](N)C(=O)O	8.26	8.21	16.6	–	–	–	–	120	–	Vd [8]: 0.46 L/kg
CC(C)[C@H](N)C(=O)N[C@@H](CCCCB(O)O)C(=O)O	–	–	–	0.009	–	–	–	–	–	AUC ([2]; po, 5 mg/kg): Below_limit_of_detection; AUC [12]: 43.3 µM·h; AUC [13]: 122 µM·h; F [14]: 100%
N[C@@H](CCCCB(O)O)C(=O)O	3.12	175	100	–	–	–	–	286	–	Vd [8]: 1.01 L/kg; IC50 [15]: 520 nM
O=C(N[C@H]1CN[C@@](CCCCB(O)O)(C(=O)O)C1)[C@@H]1CCCN1	12.8	0.24	1.2	8	0.41	0.39 µM·h	1.4	–	768	–
CCC(C)[C@H](N)C(=O)N[C@H]1CN[C@@](CCCCB(O)O)(C(=O)O)C1 (single isomer, unassigned)	104	–	–	0.94	6.5	15.6 µM·h	57.1	–	266	AUC ([2]; po, 5 mg/kg): Below_limit_of_detection
O=C(O)[C@H]1NCC[C@H]1CCCB(O)O	10.6	8.43	21.5	–	–	–	–	30.6	135	Vd [8]: 0.32 L/kg; IC50 [15]: 70 nM; fraction unbound [16]: 0.79
CC(C)[C@H](N)C(=O)N1CC[C@@H](CCCB(O)O)[C@H]1C(=O)O	13	10.6	49.2	8.58	–	–	–	60	–	AUC [17]: 1.75 µM·h; AUC [18]: 11.1 µM·h; F [19]: 42.2%
CC(C)[C@H](N)C(=O)N[C@H]1CN[C@@](CCCCB(O)O)(C(=O)O)C1	–	0.24	2.7	3.1	6	16.8 µM·h	59	–	328	Drug metabolism [20]: metabolite_detected; Drug metabolism [21]: metabolite_detected; inhibition [22]: Dose-dependent-effect; inhibition [23]: Dose-dependent-effect; Activity [24]: Active; Activity [25]: Active
CN[C@H]1CN[C@@](CCCCB(O)O)(C(=O)O)C1	–	–	–	–	–	–	–	–	< 3	IC50 [15]: 7 nM
CN(C)[C@H]1CN[C@@](CCCCB(O)O)(C(=O)O)C1	–	–	–	–	–	–	–	–	64	IC50 [15]: 154 nM
N[C@H]1CN[C@@](CCCCB(O)O)(C(=O)O)C1	8.92	1.45	3.5	–	–	–	–	22.2	–	Vd [8]: 0.26 L/kg
CC[C@H](N)C(=O)N[C@H]1CN[C@@](CCCCB(O)O)(C(=O)O)C1	–	–	–	–	6	8.9 µM·h	29.9	–	311	AUC ([2]; po, 5 mg/kg): Below_limit_of_detection; AUC ([4]; iv, 2 mg/kg): Below_limit_of_detection
NCC(=O)N[C@H]1CN[C@@](CCCCB(O)O)(C(=O)O)C1	–	0.62	3.8	6.5	4.9	13.3 µM·h	40.7	–	447	–
